{"source": "patent US5780441A", "about": "“Sphingoglycolipid compounds and therapeutic uses thereof” (Kirin Beer Kabushiki Kaisha, priority 1993, dated 1998)", "key": {"[1]": {"test_system": "mouse bone marrow cells", "experiment": "In vitro mouse bone marrow cell-proliferation-promoting effect (3H-TdR uptake)", "format": "cell-based, mouse (BDF1 female)", "conditions": "4 days, 5760 min", "how_it_was_run": "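Femoral bone marrow monocytes from 6-week female BDF1 mice (Lympholite M fraction, 1×10^6 cells/ml in 10% FCS RPMI 1640) cultured with sample for 4 days at 37 °C, 5% CO2. 3H-TdR (0.5 μCi/well) added for final 6 h; uptake ratio versus vehicle reported as activation rate.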"}, "[2]": {"test_system": "P388 mouse leukemia cells", "experiment": "Life-span-prolonging (anti-tumor) effect on mice subcutaneously inoculated with P388 mouse leukemia cells", "format": "in vivo, mouse (CDF1 female)", "conditions": "0.1 mg/kg i.v. on days 1, 5 and 9", "how_it_was_run": "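CDF1 female mice (6 weeks), 5 per group, inoculated subcutaneously with P388 leukemia cells; life-span prolongation assessed. Lentinan and picibanil given intravenously on days 1, 3, 5, 7 and 9 after implantation; sizofilan given subcutaneously on days 1 through 9. Statistics by Mann-Whitney test.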"}, "[3]": {"test_system": "mixed lymphocyte culture reaction (spleen cells of C57BL/6 and BALB/C mice)", "experiment": "Mixed lymphocyte culture reaction (MLR)", "format": "cell-based, mouse (C57BL/6 stimulator, BALB/C responder)", "conditions": "42 hours, 2520 min", "how_it_was_run": "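Mouse one-way MLR: mitomycin C-treated (50 μg/ml, 30 min) C57BL/6 spleen cells stimulated BALB/C responder spleen cells, 2×10^6 cells/ml each, cultured 42 h at 37 °C with sample. ³H-thymidine (0.5 μCi/well) incorporation over a further 8 h gave MLR activating rate as % of vehicle uptake.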"}, "[4]": {"test_system": "lethally irradiated mice", "experiment": "Radioprotective effect: life-span prolongation of lethally irradiated mice", "format": "in vivo, mouse (BDF1 female)", "conditions": "0.1 mg/kg i.v. days 0, 4, 8, 9 Gy X-ray, groups of 10, 0.1 mg/kg", "how_it_was_run": "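Female BDF1 mice (6 weeks, groups of 10) given 9 Gy X-ray on day 0, then compound 0.1 mg/kg intravenously by tail vein on days 0, 4 and 8. Survival followed for 40 days.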"}, "[5]": {"experiment": "Solubility in water in aqueous Polysorbate 20 solutions", "format": "physicochemical", "conditions": "vs Compound b", "procedure": "Compounds a and b comprising a monosaccharide as a constituent sugar which are disclosed in WO 93/05055 were synthesized as above. A 1 mg of each of the present compounds 4, 31 and 33 and Compound a and b was dissolved in 1 ml of an aqueous Polysorbate 20 solution in a variety of concentrations in order to observe visually the property."}, "[6]": {"test_system": "mouse splenic lymphocyte", "experiment": "In vitro mouse splenic lymphocyte-proliferation-stimulating effect (3H-TdR uptake)", "format": "cell-based, mouse (BDF1 female)", "conditions": "2 days, 2880 min", "how_it_was_run": "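Spleen cells from 6-week-old female BDF1 mice, 2×10^6 cells/ml in 10% FCS RPMI 1640, cultured with vehicle or sample 2 days at 37° C, 5% CO2. ^3H-TdR (0.5 μCi/well) uptake over 6 h by scintillation counting, expressed as % of vehicle.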"}, "[7]": {"test_system": "B16 mouse melanoma cells", "experiment": "Tumor growth inhibition in mice subcutaneously inoculated with B16 mouse melanoma cells", "format": "in vivo, mouse (BDF1 female)", "conditions": "0.1 mg/kg i.v. days 1, 5, 9; maximum during 20 days", "how_it_was_run": "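Female BDF1 mice (6 weeks, n=6/group) bearing subcutaneous B16 melanoma. Tumor volume [(length×width×height)/2] measured on days 8, 12, 16 and 20 after implantation; growth inhibition rate computed from treated vs control tumor volumes.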"}}, "data": [{"smiles": "CCCCCCCCCCCCCCCCCCCCCC[C@@H](O)C(=O)N[C@@H](CO[C@H]1O[C@H](CO)[C@H](O)[C@H](O[C@H]2O[C@H](CO)[C@H](O)[C@H](O)[C@H]2NC(C)=O)[C@H]1O[C@H]1O[C@H](CO)[C@@H](O)[C@H](O)[C@H]1O)[C@H](O)[C@H](O)CCCCCCCCCCCCCC", "note": "[Compound 4, O-(N-acetyl-2-amino-2-deoxy-α-D-galactopyranosyl)-(1→3)-O-[α-D-glucopyranosyl-(1→2)]-O-α-D-galactopyranosyl-(1→1)-(2S,3S,4R)-2-amino-N-[(R)-2-hydroxytetracosanoyl]-1,3,4-octadecanetriol]", "values": [{"measurement": "Uptake of 3H-TdR (% of control), bone marrow cells", "setting": "[1]; 10^-1 μg/ml", "result": "512 % of control"}, {"measurement": "Uptake of 3H-TdR (% of control), bone marrow cells", "setting": "[1]; 10^-2 μg/ml", "result": "163 % of control"}, {"measurement": "Survival days ave. ± s. d.", "setting": "[2]; all marked ** (p < 0.01)", "result": "15.2 ± 0.5", "unit": "days"}, {"measurement": "T/C (%)", "setting": "[2]; survival vs vehicle", "result": 119, "unit": "%"}, {"measurement": "MLR activating rate (%)", "setting": "[3]; 1 × 10^0 μg/ml", "result": 209, "unit": "%"}, {"measurement": "MLR activating rate (%)", "setting": "[3]; 1 × 10^-1 μg/ml", "result": 163, "unit": "%"}, {"measurement": "Number of surviving mice", "setting": "[4]; day 10", "result": 10, "unit": "mice"}, {"measurement": "Number of surviving mice", "setting": "[4]; day 15", "result": 8, "unit": "mice"}, {"measurement": "Number of surviving mice", "setting": "[4]; day 20", "result": 8, "unit": "mice"}, {"measurement": "Number of surviving mice", "setting": "[4]; day 25", "result": 6, "unit": "mice"}, {"measurement": "Number of surviving mice", "setting": "[4]; day 30", "result": 5, "unit": "mice"}, {"measurement": "Number of surviving mice", "setting": "[4]; day 35", "result": 5, "unit": "mice"}, {"measurement": "Number of surviving mice", "setting": "[4]; day 40", "result": 5, "unit": "mice"}, {"measurement": "amount of Polysorbate 20 required for dissolving, relative to that required for Compound b", "setting": "[5]", "result": "1/100"}, {"measurement": "Uptake of 3H-TdR (% of control), splenic lymphocytes", "setting": "[6]; 10^0 μg/ml", "result": "792 % of control"}, {"measurement": "Uptake of 3H-TdR (% of control), splenic lymphocytes", "setting": "[6]; 10^-1 μg/ml", "result": "692 % of control"}, {"measurement": "Uptake of 3H-TdR (% of control), splenic lymphocytes", "setting": "[6]; 10^-2 μg/ml", "result": "395 % of control"}, {"measurement": "Uptake of 3H-TdR (% of control), splenic lymphocytes", "setting": "[6]; 10^-3 μg/ml", "result": "325 % of control"}, {"measurement": "Maximum tumor growth inhibiting rate, TGIR (%)", "setting": "[7]", "result": 84.0, "unit": "%"}]}]}
